Test results from patent US8637665B2, “Pyrrolo[2,L-C][L,4]benzodiazepine-benzothiazole or benzoxazole conjugates linked through piperazine moiety and process for the preparation thereof” (priority 2010, dated 2014).

Key:
[1] = tested on: MCF-7 (breast cancer) xenografts; test: In vivo efficacy study on xenograft MCF-7; conditions: MCF-7 xenograft, scid male mice; compared with positive control adriamycin
From the text: (§1) References may be made to patent “WO/2008/099416” wherein Benzothiazole or benzoxazole linked Pyrrolo[2,1-c][1,4] benzodiazepine hybrid as anticancer agent has been reported. References may be made to patent “U.S. Pat. No. 6,979,684” wherein Pyrrolo[2,1-c][1,4] benzodiazepine and naphthalimide are linked through piperazine moiety. The linking of pharmacophore like napthalimide and piperazine to pyrroloberizodiazepine can not be considered similar to a pharmacophore like benzothiazole as each pharmacophore is known for certain biological property. In the present investigation the benzothiaole and piperazine subunits are considered to be a different heterocyclic moieties compared to the earlier reported pharmacophores like napthalimide. Therefore, this structural variation of benzothiazole with piperazine moiety has been utilized for DNA binding aspect. Keeping this in mind, these new conjugates have been designed and synthesized to further improve the anticancer activity including the DNA binding affinity. The anticancer activity may not depend on the DNA binding activity. […] Moreover, one of the potent conjugate 9f (IICT-302) of this series has been evaluated for its in vivo efficacy studies (in scid male mice) against MCF-7 (breast cancer) and PC-3 (prostate cancer) xenografts by using adriamycin as a positive control.
FIG. 2 represents in vivo efficacy study of compound 9f on xenograft MCF-7.
(§2) The structural variation of benzothiazole/benzoxazole with piperazine moiety has been utilized for DNA binding aspect. Moreover, one of the potent conjugate 9f (IICT-302) of this series has been evaluate for its in vivo efficacy studies against MCF-7 (breast cancer) and PC-3 (prostate cancer) by using Adriamycin as positive control.

[2] = tested on: PC-3 (prostate cancer) xenografts; test: In vivo efficacy study on xenograft PC3; conditions: PC-3 xenograft, scid male mice; compared with positive control adriamycin
From the text: as §1
FIG. 3 represents in vivo efficacy study of compound 9f on xenograft PC3.
as §2

[3] = tested on: eight tumour cells lines derived from seven cancer types; test: In vitro anticancer activity, SRB assay, panel of eight cell lines; format: cell-based; conditions: Homo sapiens, range over the eight cell lines per compound; read-out: GI50 range against cancer cell lines
Method: Anticancer activity: In vitro biological activity studies were carried out at the Advance Center for Treatment Research & Education in Cancer (ACTREC), Navi Mumbai.
The compounds were evaluated for in vitro anticancer activity against eight tumour cells lines derived from seven cancer types (non-small-cell lung, colon, oral, cervix, ovarian, prostate, and breast cancer) as shown in Table 2. For each compound, dose response curves for each cell line were measured at a minimum of five concentrations at 10 fold dilutions. A protocol of 48 h continuous drug exposure was used and a sulforhodamine B (SRB) protein assay was used to estimate cell viability or growth. The concentration causing 50% cell growth inhibition (GI50) and 50% cell death (LC50, −50% growth) compared with the control was calculated. Compounds 9a-9l have been evaluated for their in vitro cytotoxicity in eight cell lines from seven human cancer types of lung (Hop-62, A-549) colon (COLO-205) cervix (Si—Ha), ovary (A-2780), prostate (PC3) breast (MCF7), oral (KB). The results are expressed as percent of cell growth determined relative to that of untreated control cells (Table-8 and table-9).

[4] = tested on: KB (oral cancer) cell line; test: In vitro anticancer activity, SRB assay, KB; format: cell-based, human; conditions: Homo sapiens, 48 h
Method in brief: (§3)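 Cells are exposed to compound continuously for 48 h across at least five 10-fold dilutions, then stained with sulforhodamine B to estimate growth. GI50 and LC50 come from the dose-response curves.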

[5] = tested on: HOP 62 (lung cancer) cell line; test: cells; format: cell-based; conditions: Homo sapiens, HOP-62, 48 h
Method in brief: as §3

[6] = tested on: PC 3 (prostate cancer) cell line; test: cells; format: cell-based; conditions: Homo sapiens, 48 h
Method in brief: (§4)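 48 h continuous exposure; ≥5 concns, 10-fold dilutions. SRB protein stain for growth/viability. GI50 and LC50 (−50% growth) vs untreated control.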

[7] = tested on: A 2780 (ovary cancer) cell line; test: cells; format: cell-based; conditions: Homo sapiens, A2780, 48 h
Method in brief: as §4

[8] = tested on: SiHa (cervix cancer) cell line; test: cells; format: cell-based; conditions: Homo sapiens, SiHa, 48 h
Method in brief: as §4

[9] = tested on: Colo 205 (colon cancer) cell line; test: cells; format: cell-based; conditions: Homo sapiens, COLO 205, 48 h
Method in brief: as §4

[10] = tested on: A 549 (lung cancer) cell line; test: cells; format: cell-based; conditions: Homo sapiens, A549, 48 h
Method in brief: as §4

[11] = tested on: MCF 7 (breast cancer) cell line; test: cells; format: cell-based; conditions: Homo sapiens, MCF7, 48 h
Method in brief: as §4

[12] = tested on: duplex-form calf thymus DNA (CT-DNA); test: Thermal denaturation studies with calf thymus DNA (DNA binding affinity); conditions: [PBD]:[DNA] 1:5, CT-DNA 100 μM, ligand 20 μM, pH 7.00
Method in brief: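 CT-DNA (100 μm in phosphate) with PBD (20 μm; 1:5 PBD/DNA molar ratio) in 10 mM sodium phosphate, 1 mM Na2EDTA, pH 7.00, incubated at 37° C for 0 and 18 h. A260 monitored while heating at 1° C min^−1 over 40-110° C; Tm from d(A260)/dT maxima, ΔTm versus drug-free DNA.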

## COc1cc(-c2nc3ccccc3s2)ccc1OCCCCN1CCN(CCCCOc2cc3c(cc2OC)C(=O)N2CCC[C@H]2C=N3)CC1 [Compound 9f, 7-Methoxy-8-[4-(4-{4-[4(1,3-benzothiazol-2-yl)-2-methoxyphenoxy]butyl}piperazin-1-yl)butyl]oxy-(11aS)-1,2,3,11a-tetrahydro-5H-pyrrolo[2,1-c][1,4]benzodiazepin-5-one]
[1]
  RTV in in vivo efficacy study: good RTV
  survival data in in vivo efficacy study: good survival data
  toxicity in in vivo efficacy study: less toxicity
[2]
  RTV in in vivo efficacy study: good RTV
  survival data in in vivo efficacy study: good survival data
  toxicity in in vivo efficacy study: less toxicity
[3]
  GI50: < 10 nM
[4]; read-out: GI50 KB, 48 h drug exposure, SRB, mean of three determinations
  GI50: < 10 nM
[4]; read-out: LC50 KB, 50% cell death, 48 h drug exposure, SRB
  CC50: 180 nM
[5]; read-out: GI50 HOP 62, 48 h drug exposure, SRB, mean of three determinations
  GI50: < 10 nM
[5]; read-out: LC50 HOP 62, 50% cell death, 48 h drug exposure, SRB
  LC50: 2400 nM
[6]; read-out: GI50 PC 3
  GI50: < 10 nM
[6]; read-out: LC50 Pc 3, 50% cell death, 48 h drug exposure, SRB
  CC50: 2400 nM
[7]; read-out: GI50 A 2780, 48 h drug exposure, SRB, mean of three determinations
  GI50: < 10 nM
[7]; read-out: LC50 A 2780, 50% cell death, 48 h drug exposure, SRB
  CC50: 89 nM
[8]; read-out: GI50 SiHa, 48 h drug exposure, SRB, mean of three determinations
  GI50: < 10 nM
[8]; read-out: LC50 SiHa, 50% cell death, 48 h drug exposure, SRB
  LC50 (concentration causing 50% cell death): 2500 nM
[9]; read-out: GI50 Colo 205, 48 h drug exposure, SRB, mean of three determinations
  GI50: < 10 nM
[9]; read-out: LC50 Colo 205
  CC50: > 100000 nM
[10]; read-out: GI50 A 549, 48 h drug exposure, SRB, mean of three determinations
  GI50: < 10 nM
[10]; read-out: LC50 A 549, 50% cell death, 48 h drug exposure, SRB
  CC50: > 100000 nM
[11]; read-out: GI50 MCF 7
  GI50: < 10 nM
[11]; read-out: LC50 MCF 7, 50% cell death, 48 h drug exposure, SRB
  LC50 (concentration causing 50% cell death): < 10 nM
[12]; 0 h
  ΔTm after incubation at 37° C. for 0 h: 15.5 °C
[12]; 18 h
  ΔTm after incubation at 37° C. for 18 h: 15.9 °C
